Results reported in patent US6670383B2, “Pyranocoumarin compounds as a novel pharmacophore with anti-TB activity” (priority 2001, dated 2003).
In brackets after ≈: the same amount, converted by molar mass. Several values for one entry are separate records, joined by “and”; a condition that tells them apart may be missing. Equal entries are not always repeated. Where two headings read alike, the source gives them in different places.

Tests used:
[1] = IC50 of Table 2 (used for SI = IC50/MIC; test not described)
[2] = test system: H37Rv strain of M. tuberculosis; test: BACTEC 460 radiometric system in BACTEC 12B medium: inhibition and MIC; type: cell-based; conditions: for % Inhibition: 12.5 μg/mL; for MIC: lowest concentration inhibiting 99% of the inoculum
M. tuberculosis H37Ra [3] = test: MIC and MBC determination using 2-fold dilutions; type: cell-based; conditions: for MIC / MBC: Mycobacterium tuberculosis
M. tuberculosis H37Ra [4] = test: colorimetric microdilution broth assay with alamar Blue, initial screen at four log10 dilutions; type: cell-based; conditions: Mycobacterium tuberculosis, H37RA, initial screening at 0.128, 1.28, 12.8 and 128 μg/mL, read-out: MIC
Protocol: The compounds synthesized above were evaluated for activity against M. tuberculosis H37Ra using a colorimetric microdilution broth assay that incorporated the REDOX indicator alamar Blue, which indicates the growth and viability by the metabolic reduction of the dye from blue to red^18.
In an initial screen, the compounds were assayed in duplicate at four log10 dilutions, with the highest concentration being 128 μg/mL (therefore, tested concentrations were 0.128, 1.28, 12.8, and 128 μg/mL). Each solubilized test compound was diluted in broth medium (Middlebrook 7H9+ADC enrichment+0.2% glycerol) at twice the desired concentration and 0.05 mL of each dilution then added to appropriate wells in duplicate in a 96 well (U-shaped) microtiter plates. A plate format was designed for up to seven (7) compounds per plate. Each plate also included uninoculated drug controls, viability controls, uninoculated medium controls, and positive drug controls. The inoculum for each well consisted of 0.05 mL of culture, standardized as described above to provide an inoculum in each microtiter well of approximately 10^5 CFU/mL. The plates were covered with a lid, placed in polyethylene bags and incubated for at 37° C. for 6 days. At that time, alamar Blue, diluted in Tween 80, was added to each well followed by further incubation for about 20 hours. The plates were read in an optical microplate reader programmed to subtract absorbance at 600 nm from absorbance at 570 nm. This effectively blanked out turbidity and absorbance due to oxidized dye. The amount of dye reduced, resulting in a change from blue to red, is indicative of drug yielding a differential absorption of zero or less.

[5] = test system: M. tuberculosis strain H37Ra; test: MIC against strains of Table 1; type: cell-based
M. tuberculosis = conditions: first line anti-TB drugs, for comparison; cited from earlier work
[6] = test system: M. tuberculosis strain H37Rv; test: MIC against strains of Table 1; type: cell-based
[7] = test system: M. tuberculosis strain Erdman (TMCC 107/ATCC 35801); test: bone marrow-derived murine macrophage model, BC99; type: cell-based
TB = conditions: in vivo; cited from earlier work
[8] = test system: M. tuberculosis' synthesis of protein, RNA, DNA and lipid; test: incorporation of radiolabeled precursors into mycobacterial macromolecular components; type: cell-based
M. avium = test: inhibition of M. avium; type: cell-based; conditions: 12.5 μg/mL
Protocol: (§1) For comparison, MICs for the first line anti-TB drugs are 0.025-0.05 μg/mL for isoniazid, 0.005-0.2 μg/mL for rifampin, and 0.4-10 μg/mL for ethambutol. However, in a bone marrow-derived murine macrophage model, the BC 99 value of (+)-calanolide A, a concentration at which 99% of the inoculum of M. tuberculosis is destroyed, was 1.1 μg/mL (3 μM) against strain Erdman (TMCC 107/ATCC 35801) and 1.8 μg/mL (5 μM) against strain CSU 93 (CDC-95-031551), compared to 0.7-0.8 μg/mL (5-6 μM) for the positive control drug isoniazide.

[9] = test system: M. tuberculosis strain CSU 93 (CDC-95-031551); test: bone marrow-derived murine macrophage model, BC99; type: cell-based; conditions: concentration at which 99% of the inoculum is destroyed
Protocol: as §1

[10] = Mycobacterium tuberculosis, read-out: MIC

In the case of CCCc1cc(=O)oc2c3c(c4c(c12)OC(C)(C)C=C4)O[C@@H](C)[C@H](C)[C@H]3O [(−)-Calanolide A (2), (−)-Calanolide A], the IC50 [1] is reported as greater than 10 µg/mL, the “% Inhibition” value [2] is reported as 98% and the MIC [2] is reported as 6.25 µg/mL (≈ 16.9 µM).

In the case of CCCc1cc(=O)oc2c(C(=O)CC)c(OC)c3c(c12)OC(C)(C)CC3 [Compound 44b, 5-Methoxy-2,2-dimethyl-6-propionyl-10-propyl-3,4-dihydro-2H-pyrano[2,3-f]chromen-8-one], the MIC (M. tuberculosis H37Ra [3]; 2-fold dilutions, lowest concentration that completely inhibits growth, H37Ra, read-out: MIC) is reported as 16 µg/mL (≈ 44.6 µM), the MBC (M. tuberculosis H37Ra [3]; minimum bactericidal concentration, H37Ra, read-out: MBC) is reported as greater than 64 µg/mL and the MIC (M. tuberculosis H37Ra [4]) is reported as 1.28 to 12.8 µg/mL (≈ 3.57 to 35.7 µM).

For CCCc1cc(=O)oc2c(C(N)CC)c(OCCO)c3c(c12)OC(C)(C)C=C3 (centres unmarked) [Compound 45e, 6-(1-Aminopropyl)-5-(2-hydroxyethoxy)-2,2-dimethyl-10-propyl-2H-pyrano[2,3-f]chromen-8-one], the “effect on M. tuberculosis” value (M. tuberculosis H37Ra [3]) was “bactericidal”, the MBC (M. tuberculosis H37Ra [3]; H37RA) was 32 µg/mL (≈ 82.6 µM) and the MIC (M. tuberculosis H37Ra [3]; H37RA) was 16 µg/mL (≈ 41.3 µM). For the same compound, the MIC (M. tuberculosis H37Ra [4]) was 1.28 to 12.8 µg/mL (≈ 3.3 to 33 µM).

In the case of CC[C@@H](CO)NCCN[C@@H](CC)CO [Ethambutol], the MIC [5, 10] is listed as 4 µg/mL (≈ 19.6 µM), the MIC (M. tuberculosis) is listed as 0.4 to 10 µg/mL and the MIC [6, 10] is listed as 2 µg/mL (≈ 9.79 µM).

In the case of NNC(=O)c1ccncc1 [Isoniazid], the MIC [5, 10] is given as 0.063 µg/mL (≈ 0.459 µM), the “BC 99” value ([7]; positive control, one range printed for strains Erdman and CSU 93, listed as isoniazide) is given as 0.7-0.8 μg/mL and 5-6 μM and the MIC (M. tuberculosis) is given as 0.025 to 0.05 µg/mL. The MIC [6, 10] was 0.031 µg/mL (≈ 0.226 µM).

For CO[C@H]1/C=C/O[C@@]2(C)Oc3c(C)c(O)c4c(O)c(c(/C=N/N5CCN(C)CC5)c(O)c4c3C2=O)NC(=O)/C(C)=C\C=C\[C@H](C)[C@H](O)[C@@H](C)[C@@H](O)[C@@H](C)[C@H](OC(C)=O)[C@@H]1C [Rifampin], the TB relapse rate (TB) is listed as 5%, the MIC (M. tuberculosis) is listed as 0.005 to 0.2 µg/mL and the MIC [6, 10] is listed as 0.016 µg/mL (≈ 0.0194 µM).

In the case of [H]/N=C(/N)N[C@H]1[C@H](O)[C@@H](O)[C@H](O[C@@H]2O[C@@H](C)[C@](O)(C=O)[C@H]2O[C@@H]2O[C@@H](CO)[C@H](O)[C@@H](O)[C@@H]2NC)[C@@H](N/C(N)=N\[H])[C@@H]1O [Streptomycin], the MIC [6, 10] is reported as 0.25 µg/mL (≈ 0.43 µM) and the “inhibition of protein synthesis” value ([8]; positive control, at 5 hours) is reported as 43%.

For CO[C@H]1/C=C/O[C@@]2(C)Oc3c(C)c(O)c4c(O)c(c(/C=N/N5CCN(C6CCCC6)CC5)c(O)c4c3C2=O)NC(=O)/C(C)=C\C=C\[C@H](C)[C@H](O)[C@@H](C)[C@@H](O)[C@@H](C)[C@H](OC(C)=O)[C@@H]1C [rifapentine], the TB relapse rate (TB) is given as 10%.

In the case of (+)-Calanolide A [(+)-Calanolide A (1)], the MIC [5] is reported as 16 µg/mL, the “BC 99” value ([7]; concentration at which 99% of the inoculum is destroyed, strain Erdman) is reported as 1.1 μg/mL and 3 μM and the “kind of agent from drug inhibition patterns” value ([7]; macrophage model) is reported as “bactericidal agent”. For the same compound, the IC50 [1] was 7.60 µg/mL, the “% Inhibition” value (M. avium) was 81% and the “BC 99” value [9] was 1.8 μg/mL and 5 μM. For the same compound, the MIC [6] was 8 µg/mL, the “inhibition of RNA synthesis, extent and time frame” value [8] was “very similar to the positive control rifampin” and the “inhibition of protein synthesis” value [8] was 32%. The “inhibition of lipid synthesis” value ([8]; […], 12-hour time point, DMSO alone 51%) was 99%, the “inhibition of DNA synthesis” value ([8]; […], period of 3 hours, DMSO alone 24%) was “Approximately 77%” and the “% Inhibition” value [2] was 96%. For the same compound, the “% Inhibition” value ([2]; listed as (+)-calanolide A) was “greater than 96%”, the MIC [2] was 3.13 µg/mL and the MIC ([2]; listed as (+)-calanolide A) was 3.13 μg/mL and 8 μM.
